We go through 25 molecules from patent US20190375708A1 (VenatoRx Pharmaceuticals, Inc., priority 2018, published 2019).

A value given as a limit tells only on which side of the number the result lay.

Series [1] concerns HBV replication in HepAD38 cells. The experiment in a line: Anti-HBV replication assay in HepAD38 cells (QPCR of extracellular HBV DNA). Format: cell-based, HBV (genotype D, serotype ayw). The note with it: Hepatitis B virus, 168 h, 7 days incubation, extracellular HBV DNA by QPCR, read-out: Anti-HBV EC50. In short, it runs like this: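 Read-out is QPCR of HBV DNA released into culture supernatant, converted to percent of vehicle control and fitted to give EC50. Cells were HepAD38 induced by tetracycline removal and dosed […] for 7 days.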

Series [2] is described as follows: In vitro cytotoxicity assay (MTT cell viability) in HepG2 cells. Format: cell-based, human. The note with it: human. In short, it runs like this:
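Using MTT conversion as the viability measure, HepG2 cells were incubated with compounds for 7 days (30 μM to 1.0 nM). Absorbance at 492 nm was normalized to vehicle and fitted to give CC50.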

What is called EC50 is the concentration at which the effect is half-maximal. What is called CC50 is the concentration at which the toxic effect on the cells reaches its halfway point. As to `CCn1c(C)c(C(=O)Nc2ccc(F)c(C)c2)c(C)c1C(=O)C(=O)N[C@H]1CC[C@@H](O)CC1` [Example 284, 1-ethyl-N-(4-fluoro-3-methylphenyl)-5-(2-(((1s,4s)-4-hydroxycyclohexyl)amino)-2-oxoacetyl)-2,4-dimethyl-1H-pyrrole-3-carboxamide], the EC50 in series [1] was less than 0.05 µM. The same molecule had a 50% cytotoxic concentration (CC50) at 7 days in series [2] greater than 30 µM.
The matching figures for `O=C(NC1(CO)CC(F)(F)C1)C(=O)c1c(Cl)c(C(=O)Nc2ccc(F)c(F)c2)c2n1CCC2` [Example 581, 6-chloro-5-(2-((3,3-difluoro-1-(hydroxymethyl)cyclobutyl)amino)-2-oxoacetyl)-N-(3,4-difluorophenyl)-2,3-dihydro-1H-pyrrolizine-7-carboxamide]: less than 0.05 µM and 5 to 30 µM.
The matching figures for `Cc1c(C(=O)Nc2cccc(Cl)c2)c(C)n(C)c1C(=O)C(=O)N[C@@H]1CCC[C@@H](O)C1` [Example 689, N-(3-chlorophenyl)-5-(2-(((1R,3R)-3-hydroxycyclohexyl)amino)-2-oxoacetyl)-1,2,4-trimethyl-1H-pyrrole-3-carboxamide]: less than 0.05 µM and greater than 30 µM.
As to `Cc1c(C(=O)Nc2ccc(F)c(F)c2)c(C)n(C)c1C(=O)C(=O)NC12CCC(O)(CC1)CC2` [Example 335, N-(3,4-difluorophenyl)-5-(2-((4-hydroxybicyclo[2.2.2]octan-1-yl)amino)-2-oxoacetyl)-1,2,4-trimethyl-1H-pyrrole-3-carboxamide], the EC50 in series [1] was less than 0.05 µM. The CC50 at 7 days in series [2] is greater than 30 µM.
The matching figures for `Cc1cc(NC(=O)c2c(Cl)c(C(=O)C(=O)NC3(CO)CC3)n3c2CCC3)ccc1F` [Example 542, 6-chloro-N-(4-fluoro-3-methylphenyl)-5-(2-((1-(hydroxymethyl)cyclopropyl)amino)-2-oxoacetyl)-2,3-dihydro-1H-pyrrolizine-7-carboxamide]: less than 0.05 µM and greater than 30 µM.
The matching figures for `Cc1cc(NC(=O)c2c(C)c(C(=O)C(=O)NC3(CO)CCOC3)n(C)c2C)ccc1F` (centres unmarked) [Example 13, N-(4-fluoro-3-methylphenyl)-5-(2-((3-(hydroxymethyl)tetrahydrofuran-3-yl)amino)-2-oxoacetyl)-1,2,4-trimethyl-1H-pyrrole-3-carboxamide]: less than 0.05 µM and greater than 30 µM.
For `CC[C@H](C)NC(=O)C(=O)c1c(Cl)c(C(=O)Nc2cnc(F)c(C)c2)c2n1CCC2` [Example 733, (S)-5-(2-(sec-butylamino)-2-oxoacetyl)-6-chloro-N-(6-fluoro-5-methylpyridin-3-yl)-2,3-dihydro-1H-pyrrolizine-7-carboxamide] the same measures were less than 0.05 µM and 5 to 30 µM.
Consider `Cc1c(C(=O)Nc2ccc(F)c(F)c2)c(C)n(C)c1C(=O)C(=O)N[C@]1(C)CC[C@@H](O)CC1` [Example 706, N-(3,4-difluorophenyl)-5-(2-(((1r,4r)-4-hydroxy-1-methylcyclohexxyl)amino)-2-oxoacetyl)-1,2,4-trimethyl-1H-pyrrole-3-carboxmaide], for which the EC50 in series [1] is less than 0.05 µM. In addition, the CC50 at 7 days in series [2] was greater than 30 µM.
For `Cc1cc(NC(=O)C(=O)c2c(C)c(C(=O)Nc3ccc(F)c(C)c3)c(C)n2C)on1` [Example 304, N-(4-fluoro-3-methylphenyl)-1,2,4-trimethyl-5-(2-((3-methylisoxazol-5-yl)amino)-2-oxoacetyl)-1H-pyrrole-3-carboxamide] the same measures were less than 0.05 µM and 5 to 30 µM.
For `CC(=O)N1CCC[C@H](NC(=O)C(=O)c2c(C)c(C(=O)Nc3ccc(F)c(C)c3)c(C)n2C)C1` [Example 641, (S)-5-(2-((1-acetylpiperidin-3-yl)amino)-2-oxoacetyl)-N-(4-fluoro-3-methylphenyl)-1,2,4-trimethyl-1H-pyrrole-3-carboxamide], the EC50 in series [1] is less than 0.05 µM. In addition, in series [2], the CC50 at 7 days is greater than 30 µM.
The matching figures for `Cc1cc(NC(=O)c2c(C)c(C(=O)C(=O)N[C@@H](CO)C(=O)O)n(C)c2C)ccc1F` [Example 32, (2-(4-((4-fluoro-3-methylphenyl)carbamoyl)-1,3,5-trimethyl-1H-pyrrol-2-yl)-2-oxoacetyl)-L-serine]: greater than 1 µM and greater than 30 µM.
As for `Cc1cc(NC(=O)c2c(C)c(C(=O)C(=O)N[C@H](C(N)=O)C(C)(C)C)n(C)c2C)ccc1F` [Example 39, (S)-5-(2-((1-amino-3,3-dimethyl-1-oxobutan-2-yl)amino)-2-oxoacetyl)-N-(4-fluoro-3-methylphenyl)-1,2,4-trimethyl-1H-pyrrole-3-carboxamide], in series [1], the EC50 was in the range of 0.5 to 1 µM. The molecule also returned a CC50 at 7 days in series [2] greater than 30 µM.
For `Cc1c(C(=O)Nc2ccnc(F)c2)c(C)n(C)c1C(=O)C(=O)N[C@H]1CCC[C@@H]1O` [Example 134, N-(2-fluoropyridin-4-yl)-5-(2-(((1S,2S)-2-hydroxycyclopentyl)amino)-2-oxoacetyl)-1,2,4-trimethyl-1H-pyrrole-3-carboxamide] the same measures were 0.05 to 0.499 µM and greater than 30 µM.
For `Cc1c(C(=O)Nc2ccc(F)nc2)c(C)n(C)c1C(=O)C(=O)NC1(C(F)(F)F)CCOCC1` [Example 110, N-(6-fluoropyridin-3-yl)-1,2,4-trimethyl-5-(2-oxo-2-((4-(trifluoromethyl)tetrahydro-2H-pyran-4-yl)amino)acetyl)-1H-pyrrole-3-carboxamide] the same measures were less than 0.05 µM and greater than 30 µM.
For `Cc1cc(NC(=O)c2c(C)c(C(=O)C(=O)N[C@H](C)C(F)(F)F)n3c2CCCC3)cnc1F` [Example 469, (R)-N-(6-fluoro-5-methylpyridin-3-yl)-2-methyl-3-(2-oxo-2-((1,1,1-trifluoropropan-2-yl)amino)acetyl)-5,6,7,8-tetrahydroindolizine-1-carboxamide] the same measures were 0.5 to 1 µM and 5 to 30 µM.
Consider `Cc1cc(NC(=O)c2c(C)c(C(=O)C(=O)N[C@@H]3C[C@H](O)[C@H]4OC(C)(C)O[C@H]43)n(C)c2C)ccc1F` [Example 695, N-(4-fluoro-3-methylphenyl)-5-(2-(((3aS,4R,6S,6aR)-6-hydroxy-2,2-dimethyltetrahydro-4H-cyclopenta[d][1,3]dioxol-4-yl)amino)-2-oxoacetyl)-1,2,4-trimethyl-1H-pyrrole-3-carboxamide], for which the EC50 in series [1] was less than 0.05 µM. In series [2], this molecule registered a CC50 at 7 days greater than 30 µM.
For `Cc1cc(NC(=O)c2c(C)c(C(=O)C(=O)NC3CCN(c4ccncc4)CC3)n(C)c2C)ccc1F` [Example 662, N-(4-fluoro-3-methylphenyl)-1,2,4-trimethyl-5-(2-oxo-2-((1-(pyridin-4-yl)piperidin-4-yl)amino)acetyl)-1H-pyrrole-3-carboxamide] the same measures were less than 0.05 µM and greater than 30 µM.
The matching figures for `Cc1cc(NC(=O)c2c(C)c(C(=O)C(=O)NC3CCN(c4cccs4)CC3)n(C)c2C)ccc1F` [Example 655]: 0.05 to 0.499 µM and greater than 30 µM.
With `Cc1cc(NC(=O)c2c(C)c(C(=O)C(=O)NCCn3ccnc3)n(C)c2C)ccc1F` [Example 346, 5-(2-((2-(1H-imidazol-1-yl)ethyl)amino)-2-oxoacetyl)-N-(4-fluoro-3-methylphenyl)-1,2,4-trimethyl-1H-pyrrole-3-carboxamide], in series [1], the EC50 is less than 0.05 µM. The molecule further gave a CC50 at 7 days in series [2] greater than 30 µM.
The matching figures for `Cc1cc(NC(=O)c2c(C)c(C(=O)C(=O)NCC(C)(C)O)n(C)c2C)ccc1F` [Example 66, N-(4-fluoro-3-methylphenyl)-5-(2-((2-hydroxy-2-methylpropyl)amino)-2-oxoacetyl)-1,2,4-trimethyl-1H-pyrrole-3-carboxamide]: less than 0.05 µM and greater than 30 µM.
For `Cc1cc(NC(=O)c2c(C)c(C(=O)C(=O)N[C@@H]3CC[C@H](O)[C@H]3O)n(C)c2C)ccc1F` [Example 151, 5-(2-(((1R,2S,3S)-2,3-dihydroxycyclopentyl)amino)-2-oxoacetyl)-N-(4-fluoro-3-methylphenyl)-1,2,4-trimethyl-1H-pyrrole-3-carboxamide] the same measures were less than 0.05 µM and greater than 30 µM.
`Cc1cc(NC(=O)c2c(C)c(C(=O)C(=O)N[C@H]3CCOC[C@@H]3O)n(C)c2C)ccc1F` [Example 187, N-(4-fluoro-3-methylphenyl)-5-(2-(((3R,4S)-3-hydroxytetrahydro-2H-pyran-4-yl)amino)-2-oxoacetyl)-1,2,4-trimethyl-1H-pyrrole-3-carboxamide]: the EC50 in series [1] was greater than 1 µM. This molecule had a CC50 at 7 days in series [2] greater than 30 µM.
The matching figures for `O=C(NC1(CO)CCC1)C(=O)c1c(Cl)c(C(=O)Nc2ccc(F)c(F)c2)c2n1CCOC2` [Example 584, 7-chloro-N-(3,4-difluorophenyl)-6-(2-((1-(hydroxymethyl)cyclobutyl)amino)-2-oxoacetyl)-3,4-dihydro-1H-pyrrolo[2,1-c][1,4]oxazine-8-carboxamide]: less than 0.05 µM and 5 to 30 µM.
Take `Cc1cc(NC(=O)c2c(C)c(C(=O)C(=O)NCC(C)(C)CO)n(C)c2C)ccc1F` [Example 65, N-(4-fluoro-3-methylphenyl)-5-(2-((3-hydroxy-2,2-dimethylpropyl)amino)-2-oxoacetyl)-1,2,4-trimethyl-1H-pyrrole-3-carboxamide]: the EC50 in series [1] was less than 0.05 µM. This molecule had a CC50 at 7 days in series [2] greater than 30 µM.
For `COc1c(C(=O)Nc2ccc(F)c(F)c2)c(C)n(C)c1C(=O)C(=O)NC1(C(F)(F)F)CCC1` [Example 378, N-(3,4-difluorophenyl)-4-methoxy-1,2-dimethyl-5-(2-oxo-2-((1-(trifluoromethyl)cyclobutyl)amino)acetyl)-1H-pyrrole-3-carboxamide] the same measures were less than 0.05 µM and greater than 30 µM.
